Source: patent US20130012497A1, “METHODS FOR DETECTING ADHD SUSCEPTIBILITY AND […] AND LONG TERM OUTCOME OF ADHD SYMPTOMS” (The United States of America, as represented by the …, priority 2011, published 2013)

Tested on: ADHD symptoms
Assay: Treatment response to stimulant medication on the SWAN scale, by LPHN3-11q genotype
Type: in vivo, human
Settings: 82 individuals, US1 sample
Method: Eighty-two individuals with complete genotype and phenotype information were sampled from the original 240 trios in the US1 sample of Example 1. A comparative analyses regarding stimulant treatment was done as described in Arcos-Burgos et al., Mol. Psychiatry, 15(11): 1053-66 (2010). An analysis was performed to determine the relationship of SWAN scale (Strengths and Weaknesses of ADHD Symptoms and Normal Behavior scale) questions individually as well as inattentive and hyperactive combined dimensions (questions 1-9 indicate inattentive symptoms and questions 10-18 indicate hyperactive symptoms), prior to and after starting treatment with the stimulant methylphenidate.

SMILES: COC(=O)C(c1ccccc1)C1CCCCN1 (centres unmarked) [methylphenidate]
- response to stimulant medication treatment (SWAN scale) (individuals having AA at rs6551665 and fewer than two copies of the susceptibility haplotype on 11q): poor response
- change of symptoms after treatment with stimulant medication (SWAN scale question 18, hyperactive-impulsive dimension) (individuals having GG at rs6551665 and two copies of the susceptibility haplotype on 11q): significant improvement of symptoms
